Measurements published in the supplement of paper PMC3937590.

Legend:
Assay in all cases: -log10 GI50 (growth inhibition 50%) (-log10(M)); higher = more potent growth inhibition
[1] = test system: MDAMB453
How it was run: (§1)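 A value carrying a < qualifier equals the top dose tested. Each compound was tested in triplicate on breast cancer cell lines for 72 hours at nine doses in 1:5 serial dilution, using a luminescence read-out against a time-zero plate. Nonlinear least squares fitting of a Gompertz curve gave GI50, the molar concentration causing the set level of growth inhibition, which is reported as its negative logarithm. The logarithm is base 10.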

[2] = test system: CAMA1
How it was run: as §1

[3] = test system: 184B5
How it was run: as §1

[4] = test system: MCF10F
How it was run: as §1

[5] = test system: ZR751
How it was run: as §1

[6] = test system: SUM185PE
How it was run: as §1

[7] = test system: HCC3153
How it was run: as §1

[8] = test system: 184A1
How it was run: as §1

[9] = test system: SUM52PE
How it was run: as §1

[10] = test system: HS578T
How it was run: as §1

[11] = test system: MCF12A
How it was run: as §1

[12] = test system: HCC1187
How it was run: as §1

[13] = test system: SUM1315MO2
How it was run: as §1

[14] = test system: T47D
How it was run: as §1

[15] = test system: MDAMB415
How it was run: as §1

[16] = test system: MX1
How it was run: as §1

[17] = test system: SUM149PT
How it was run: as §1

[18] = test system: HCC1395
How it was run: as §1

[19] = test system: UACC812
How it was run: as §1

[20] = test system: BT483
How it was run: as §1

| -log10 GI50 [1] | -log10 GI50 [7] | -log10 GI50 [12] | -log10 GI50 [14] | -log10 GI50 [15] | -log10 GI50 [18] | -log10 GI50 [20] | Structure (SMILES) | -log10 GI50 [2] | -log10 GI50 [3] | -log10 GI50 [4] | -log10 GI50 [5] | -log10 GI50 [6] | -log10 GI50 [8] | -log10 GI50 [9] | -log10 GI50 [10] | -log10 GI50 [11] | -log10 GI50 [13] | -log10 GI50 [16] | -log10 GI50 [17] | -log10 GI50 [19] |
| --- | --- | --- | --- | --- | --- | --- | --- | --- | --- | --- | --- | --- | --- | --- | --- | --- | --- | --- | --- | --- |
| 7.69 | 7.18 | 7.8 | 7.62 | 7.52 | 7.42 | 6.84 | COC1=C2C[C@@H](C)C[C@H](OC)[C@H](O)[C@@H](C)/C=C(\C)[C@H](OC(N)=O)[C@@H](OC)/C=C\C=C(/C)C(=O)NC(=CC1=O)C2=O [Geldanamycin] | 7.47 | 8.01 | 8.14 | 7.06 | 7.71 | 8.41 | 7.93 | 7.28 | 7.73 | 7.7 |  | 8.22 | 7.97 |
| 4.58 | < 4.48 | 6.22 | 4.82 | 5.03 | 5.05 |  | Cc1cncc2cccc(S(=O)(=O)N3CCCN(C(=O)CN)C[C@@H]3C)c12 [Glycyl H1152] | < 4.48 | < 4.18 | < 4.18 | 4.81 |  | < 4.18 | 5.1 | 5.82 | 4.9 | 5.15 | 5.96 | 4.57 | 4.59 |
| 7.37 | 7.56 | 7.58 | 7.08 | 7.05 | 7.64 | 6.08 | Cc1ccc(C(=O)N(CCCN)[C@@H](c2nc3cc(Cl)ccc3c(=O)n2Cc2ccccc2)C(C)C)cc1 [Ispinesib] | 7.51 | 6.05 | 7.57 | 7.05 | 6.96 | 5.84 | 7.54 | 6.51 | 7.25 | 7.39 | 7.92 | 7.48 |  |
| < 3.48 | < 3.48 | 5.59 | < 3.48 | < 3.48 | < 3.48 | 3.63 | CN(Cc1cnc2nc(N)nc(N)c2n1)c1ccc(C(=O)N[C@@H](CCC(=O)O)C(=O)O)cc1 [Methotrexate] | 6.97 | 7.37 | 7 | 7.31 | < 3.48 | 7.18 | < 3.48 | < 3.48 | 5.22 | < 3.48 | 7.82 | < 3.48 |  |
| 5.19 | 5.19 | 5.85 | 5.55 | 4.53 |  | 4.56 | O=C(O)C(=O)O.[NH-][C@@H]1CCCC[C@H]1[NH-].[Pt+2] [Oxaliplatin] |  | 5.57 | 5.35 | 5.61 | 4.39 | 5.89 | 5.46 | 4.74 | 5.75 | 4.86 |  | 5.83 | 5.85 |
| 7.99 | 7.7 | 8.05 | 8.02 | 8.18 | 7.71 | 7 | CC(=O)O[C@H]1C(=O)[C@@]2(C)[C@H]([C@H](OC(=O)c3ccccc3)[C@]3(O)C[C@H](OC(=O)[C@H](O)[C@@H](NC(=O)c4ccccc4)c4ccccc4)C(C)=C1C3(C)C)[C@]1(OC(C)=O)CO[C@@H]1C[C@@H]2O [Paclitaxel] | 7.95 | 7.74 | 8.08 | 7.76 | 6.64 | 7.35 | 8.2 | 8.38 | 7.97 | 8.29 |  | 8.03 | 8.08 |
| < 3.78 | 3.83 | 4.63 | < 3.78 | < 3.78 | < 3.78 | 4.4 | CC(C)[C@H](CO)Nc1nc(Nc2cccc(Cl)c2)c2ncn(C(C)C)c2n1 [Purvalanol A] | 3.87 | 5.52 | 4.74 | < 3.78 | 4.69 | 4.62 | 4.79 | < 3.78 | 4.15 | 5.09 | < 3.78 | 4.88 |  |
| 5.3 | 4.96 | 5.26 | 4.94 | 5.25 | 5.35 | 4.73 | CCN(CC)CCNC(=O)c1c(C)[nH]c(/C=C2\C(=O)Nc3ccc(F)cc32)c1C [Sunitinib malate] | 5.07 | 5.28 | 5.39 | 4.88 | 5.98 | 5.37 | 5.94 | 5.37 | 5.19 | 5.12 | 5.27 | 5.57 |  |

More lines, now with the values behind:

| Structure (SMILES) | -log10 GI50 [1] | -log10 GI50 [7] | -log10 GI50 [12] | -log10 GI50 [14] | -log10 GI50 [15] | -log10 GI50 [18] | -log10 GI50 [20] | -log10 GI50 [2] | -log10 GI50 [3] | -log10 GI50 [4] | -log10 GI50 [5] | -log10 GI50 [6] | -log10 GI50 [8] | -log10 GI50 [9] | -log10 GI50 [10] | -log10 GI50 [11] | -log10 GI50 [13] | -log10 GI50 [16] | -log10 GI50 [17] | -log10 GI50 [19] |
| --- | --- | --- | --- | --- | --- | --- | --- | --- | --- | --- | --- | --- | --- | --- | --- | --- | --- | --- | --- | --- |
| CC(=O)NCC(=O)N1[C@@H]2CC[C@H]1c1ccc(Nc3ncc(C(F)(F)F)c(NC4CCC4)n3)cc12 | 5.62 | 5.38 | 7.1 | 5.14 | 5.18 | 5.96 |  | 5.44 | 5.48 | 6.28 | 4.99 | 6.63 | 5.66 | 7.57 | 6.05 | 5.59 | 6.12 | 7 | 6.08 |  |
| CC(C)Oc1ccc(C(=O)N[C@H](CNC(=O)CN(C)C)Cc2ccc(-c3cn4cccc([C@H](C)O)c4n3)cc2)cc1Cl |  | 7.22 | 7.52 | 7.29 | 7.08 | 7.35 | 6.44 | 7.33 | 5.17 | 6.29 | 7.09 | 5.43 | 5.1 | 7.65 | 7.32 | 6.1 | 7.46 |  | 7.17 | 7.94 |
| CCNCCCNC/C=C\CNCCCNCC | 4.26 | 5.24 | 3.16 | 5.67 | 4.17 | 4.09 | 3.27 | 2.91 | 3.13 | 3.76 | 3.29 | < 3.3 | 3.2 | 5.45 | 4.54 | < 4 | 2.95 |  | 4.55 | 3.47 |
| CCn1cc(-c2ccnc3[nH]c(-c4cccc(CN(C)C)c4)cc23)c(-c2ccc(NC(=O)N(C)C)cc2)n1 | 5.54 | 4.97 | 7.95 | 5.36 | 5.76 | 5.27 | 5.35 | 5.05 | 6.19 | 5.69 | 5.08 | 5.95 | 6.1 | 6.86 | 6.42 | 5.22 | 5.9 |  | 5.55 | 5.07 |
| C[C@@H](Oc1cc(-n2cnc3ccc(CN4CCN(C)CC4)cc32)sc1C(N)=O)c1ccccc1C(F)(F)F | 8.02 | 7.78 | 7.48 | 5.56 | 7.15 | 8.37 | 5.35 | 5.17 | 6.69 | 7.11 | 5.16 | 5.71 | 5.18 | 8.2 | 7.71 | 6.14 | 7.52 |  | 7.96 | 4.99 |
| C=CCNC1=C2C[C@@H](C)C[C@H](OC)[C@H](O)[C@@H](C)/C=C(\C)[C@H](OC(N)=O)[C@@H](OC)/C=C\C=C(/C)C(=O)NC(=CC1=O)C2=O [17-AAG] | 7.36 | 6.82 | 5.29 | 5.97 | 7.45 | 6.54 | 6.68 | 6.6 | 7.56 | 7.5 | 6.83 | 7.47 | 7.93 | 7.79 | 6.96 | 7.48 | 7.72 |  | 7.01 | 7.96 |
| CC(C)C[C@H](NC(=O)[C@H](Cc1ccccc1)NC(=O)c1cnccn1)B(O)O [Bortezomib] | 8.07 | 7.9 | 8.26 | 8.02 | 7.4 | 8.15 | 7.44 | 7.9 | 8.33 | 7.59 | 7.55 | 8.27 | 8.18 | 8.28 | 7.81 | 7.39 | 7.75 | 8.06 | 8 |  |
| COc1cc(Nc2c(C#N)cnc3cc(OCCCN4CCN(C)CC4)c(OC)cc23)c(Cl)cc1Cl [Bosutinib] |  | 5.18 | 5.5 |  | 5.73 | 5.93 | 5.43 | 5.11 | 6.26 | 5.75 | 4.94 |  | 6.3 | 5.85 | 5.8 | 5.99 | 6.12 | 6.38 | 6.13 | 5.56 |
| O=C(O)C1(C(=O)O)CCC1.[NH2-].[NH2-].[Pt+2] [Carboplatin] | 4.27 | 4.45 | 4.66 | 4.02 | 3.79 | 5 | 5.82 | 3.72 | 5.29 | 4.41 | 4.1 | 3.94 | 4.9 | 4.71 | 4.1 | 4.05 | 4.57 |  | 4.82 | 4.76 |
| N.N.[Cl][Pt][Cl] [Cisplatin] | 5.16 | 5.12 | 5.67 | 5.27 | 3.84 | 5.91 | 4.05 | 4.39 | < 3.3 | 5.42 | 4.99 | 4.03 | 5.53 | 5.78 | 5.16 | 4.18 | 5.75 |  | 5.8 | 5.48 |
| CC(=O)O[C@@]12CO[C@@H]1C[C@H](O)[C@@]1(C)C(=O)[C@H](O)C3=C(C)[C@@H](OC(=O)[C@H](O)[C@@H](NC(=O)OC(C)(C)C)c4ccccc4)C[C@@](O)([C@@H](OC(=O)c4ccccc4)[C@H]21)C3(C)C [Docetaxel] | 8.32 | 8.01 | 8.61 | 8.51 | 8.48 | 8.24 | 7.65 |  | 8.39 | 8.59 | 7.74 | 6.4 | 6.13 | 8.67 | 8.76 | 8.59 | 8.71 |  | 8.76 | 8.39 |
| COc1cc([C@@H]2c3cc4c(cc3[C@@H](O[C@@H]3O[C@@H]5CO[C@@H](C)O[C@H]5[C@H](O)[C@H]3O)[C@H]3COC(=O)[C@H]23)OCO4)cc(OC)c1O [Etoposide] | 5.3 | 5.57 | 6.21 | 5.99 | 4.56 | 5.53 | 5.37 | 5.31 | 5.06 | 6.13 | 5.68 | 5.31 | 5.08 | 5.59 | 5.22 | 6.44 | 6.61 | 6.34 | 5.58 |  |
| O=C1c2ccccc2-[n+]2ccc3c([nH]c4ccccc43)c21 [Fascaplysin] | 7.06 | 6.55 | 7.83 | 6.34 | 7.22 | 6.49 | 7.18 | 6.61 | 6.53 | 6.58 | 6.45 | 7.26 | 6.4 | 6.74 | 5.98 | 6.45 | 6.38 | 6.53 | 6.4 |  |
| COc1cc2ncnc(Nc3ccc(F)c(Cl)c3)c2cc1OCCCN1CCOCC1 [Gefitinib] | 5.13 | < 4.48 | 4.53 | 4.8 | 5.09 | 5.17 | 5.21 |  | 7.43 | 6.16 | < 4.48 | 5.11 | < 4.48 | 5.1 | 4.76 | 6.17 | 5.83 |  | 5.62 | 6.04 |
